Data taken from PubChem BioAssay (NCI).
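Assay format: 96-well plates, 48-hour exposure. GI50 is the concentration that inhibits growth by half. TGI marks complete inhibition of growth.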

What was measured:
Test in all cases: DTP human tumour cell line panel, 48 h
COLO 205 colon = system: COLO 205 colon
HCT-15 colon = system: HCT-15 colon
IGROV1 ovarian = system: IGROV1 ovarian
K-562 leukemia = system: K-562 leukemia
MDA-MB-231 breast = system: MDA-MB-231 breast
PC-3 prostate = system: PC-3 prostate
SK-MEL-5 melanoma = system: SK-MEL-5 melanoma
SN12C renal = system: SN12C renal
TK-10 renal = system: TK-10 renal
SK-OV-3 ovarian = system: SK-OV-3 ovarian

Row | SMILES | TGI (COLO 205 colon) [µM] | TGI (HCT-15 colon) [µM] | TGI (IGROV1 ovarian) [µM] | TGI (K-562 leukemia) [µM] | TGI (MDA-MB-231 breast) [µM] | TGI (PC-3 prostate) [µM] | TGI (SK-MEL-5 melanoma) [µM] | TGI (SN12C renal) [µM] | TGI (TK-10 renal) [µM] | TGI (SK-OV-3 ovarian) [µM] | GI50 (HCT-15 colon) [µM] | GI50 (IGROV1 ovarian) [µM] | GI50 (K-562 leukemia) [µM] | GI50 (MDA-MB-231 breast) [µM] | GI50 (PC-3 prostate) [µM] | GI50 (SK-MEL-5 melanoma) [µM] | GI50 (SK-OV-3 ovarian) [µM] | GI50 (SN12C renal) [µM] | GI50 (TK-10 renal) [µM]
1 | CS/C(C#N)=C(\C#N)SC | > 100 | 5.95 | 43.8 | 48.4 | 89.6 | 62.2 | 49.1 | 34.4 | 20.7 |  |  |  |  |  |  |  |  |  | 
2 | Cc1cccc(O)c1-c1nnc(CCCCCCCCc2nnc(-c3c(C)cccc3O)n2N)n1N | > 31.6 | > 100 | > 100 | > 100 | > 100 | > 100 | > 100 | > 100 | > 59 | > 100 |  |  |  |  |  |  |  |  | 
3 | c1ccc(CSc2ccccc2CN2CCN(Cc3ccccc3SCc3ccccc3)CCN(Cc3ccccc3SCc3ccccc3)CC2)cc1 | 2.21 | 3.3 |  | 7.18 | 3.16 | 2.52 | 2.95 | 3.36 | 5.72 | 6.34 |  |  |  |  |  |  |  |  | 
4 | CCN1CCN(c2nc3ccccc3nc2C(=O)c2ccc(OC)cc2)CC1 | > 100 | > 100 | > 100 | > 100 |  | > 100 | > 100 |  | 70.4 | > 100 |  |  |  |  |  |  |  |  | 
5 | c1ccc(CSC2(SCc3ccccc3)CCCC2)cc1 | > 10 | > 10 | > 10 | > 10 | > 10 | > 10 | > 10 | > 10 | > 10 | > 10 |  |  |  |  |  |  |  |  | 
6 | C[C@H]1C(=O)O[C@@H]1[C@H]1COC(C)(C)O1 |  | > 100 |  |  | > 100 | > 100 |  | > 100 | > 100 | > 100 |  |  |  |  |  |  |  |  | 
7 | COC(=O)C(=O)C(C(=O)C1=NS(=O)(=O)c2cc(S(N)(=O)=O)c(Cl)cc2N1)c1nc2ccc(C(=O)c3ccccc3)cc2[nH]c1=O (stereo unspecified) | > 100 | > 100 | > 100 | > 100 |  |  | > 100 | > 100 | > 100 |  |  |  |  |  |  |  |  |  | 
8 | [O-]c1c[n+](CCCC[n+]2cc([O-])on2)no1 | > 100 | > 100 | > 100 | > 100 | > 100 | > 100 | > 100 | > 100 | > 100 | > 100 |  |  |  |  |  |  |  |  | 
9 | Nc1ccc(Oc2ccc(C3(c4ccc(Oc5ccc(N)cc5)cc4)C4CC5C6CC7CC5C3C(C7)C6C4)cc2)cc1 | > 100 | > 100 | > 100 | > 100 | 77 | > 100 | > 100 | 98.5 | > 100 |  |  |  |  |  |  |  |  |  | 
10 | Nc1nc(Cl)cc(NCCCNc2cc(Cl)nc(N)n2)n1 | > 100 | > 100 | > 100 | > 100 |  |  | > 100 | > 100 | > 100 | > 100 |  |  |  |  |  |  |  |  | 
11 | CN(C)CCCNC(=O)c1cc(NC(=O)c2cc(NS(=O)(=O)c3ccc4c(c3)C(=O)c3ccccc3C4=O)cn2C)cn1C | > 100 | > 100 | > 100 | > 100 | > 100 | > 100 | > 100 | > 100 | > 100 | > 100 |  |  |  |  |  |  |  |  | 
12 | Cc1ccc(-c2cc(-c3ccc(Cl)cc3)nc(/N=C3\C(=O)N(CN4CCOCC4)c4ccccc43)n2)cc1 | 79.8 | > 100 | 39.3 | 76.8 | > 100 | > 100 | 36.1 | > 100 | 81.7 | > 100 |  |  |  |  |  |  |  |  | 
13 | O=c1oc2ccccc2n1P(=O)(n1c(=O)oc2ccccc21)n1c(=O)oc2ccccc21 | > 100 |  | > 100 | > 100 |  |  |  | > 100 | > 100 | > 100 |  |  |  |  |  |  |  |  | 
14 | Cn1cc(-c2csc(-c3cn(C)c4ccc(Br)cc34)n2)c2cnccc21 |  | 3.25 | 3.28 | 0.563 | 3.09 | 3.02 | 3.09 | 2.92 | 3.22 | 3.6 | 1.75 | 1.76 | 0.239 | 1.66 | 1.55 | 1.7 | 1.99 | 1.53 | 1.71
15 | CN1C(=O)CN2C(Cl)(Cl)C2(c2ccccc2F)c2cc([N+](=O)[O-])ccc21 (stereo unspecified) | > 100 | > 100 | > 100 | > 100 |  |  | > 100 | 80.7 | > 100 |  |  |  |  |  |  |  |  |  | 
16 | CC1=C(C#N)C23C(=O)c4ccccc4C(O)=C2C(=O)C=CC3(O)N1 (stereo unspecified) | > 100 | > 100 | 17.2 | > 100 | 43.5 | 28.7 | 2.75 | 6.19 | 35.7 | > 100 |  |  |  |  |  |  |  |  | 
17 | Cc1ccccc1[P+](C)(c1ccccc1C)c1ccccc1C | 22.4 | 48.2 | 33 |  | 35.2 | 55.2 | 16.8 | 43.9 | 36.8 | > 100 |  |  |  |  |  |  |  |  | 
18 | CC(N)C(=O)OCN1C(=O)C2C3C=CC(C2C1=O)C1C2C(=O)N(COC(=O)C(C)N)C(=O)C2C31 (stereo unspecified) | 35.1 | 37.9 | > 100 | 77 |  |  | 34.1 | 55.8 | > 100 | > 100 |  |  |  |  |  |  |  |  | 
19 | CNC1C(O)C(NC)C2OC3(O)C(=O)CC(C)OC3OC2C1O (stereo unspecified) | > 100 | > 100 | > 100 | > 100 | > 100 | > 100 | > 100 | > 100 | > 100 | > 100 |  |  |  |  |  |  |  |  | 
20 | Oc1cccc(-c2ccc3c4c2O[C@H]2c5[nH]c6ccccc6c5C[C@@]5(O)[C@@H](C3)N(CC3CC3)CC[C@]425)c1 | 5.92 | 3.03 | 3.12 |  | 4.03 | 3.44 | 10.3 | 3.04 | 4.34 |  |  |  |  |  |  |  |  |  | 
21 | CCN1C(=S)n2cccc2C1CC(=O)c1ccc(Cl)cc1 (stereo unspecified) |  | > 100 | > 100 | > 100 | > 100 | > 100 |  | > 100 | > 100 | > 100 |  |  |  |  |  |  |  |  | 
22 | O=Nc1c(-c2c(O)[nH]c3ccccc23)[nH]c2ccccc12 | 34.8 | > 87.5 | 22 | > 100 | 21.2 | 28.1 | 26.4 | 13.3 | 55.2 | 21.2 |  |  |  |  |  |  |  |  | 
23 | C=C1C(=O)OC2/C=C(\C)C3OC3/C=C(/C(=O)OC)C(O)C(OC(=O)C3(C)OC3C)C12 (stereo unspecified) | 2.52 | 3.78 | 8.45 | 14.3 |  |  | 3.42 | 5.64 | 9.14 | 26.4 |  |  |  |  |  |  |  |  | 
24 | CN(C)CC1CCCC(CN2CCCCC2)C1=O (stereo unspecified) | 7.03 | 27.9 | 35.5 |  | 28.3 | 29 | 33.5 | 16.8 | 21.3 | > 100 |  |  |  |  |  |  |  |  | 
25 | C=CCc1c(C)nc(C)nc1N/N=C/C=C/c1ccccc1 | > 100 | > 100 | > 100 | 87.4 | > 100 | > 100 | 84.2 | > 100 | 99.9 | > 100 |  |  |  |  |  |  |  |  | 
26 | CC(C)OC(=O)Nc1cccc(Cl)c1 | > 100 | > 100 | > 100 | > 100 | > 100 | > 100 | > 100 | > 100 | > 100 | > 100 |  |  |  |  |  |  |  |  | 
27 | CC(=O)OCc1ccc2oc(=O)c(C(=O)Oc3cccc(Cl)c3)cc2c1 | 94.4 | > 100 | > 100 | 79.8 | 98.8 | 34.4 | > 100 | > 100 | 91.6 | > 100 |  |  |  |  |  |  |  |  | 
28 | Cc1nc2c(O)cc3c4c(=O)n(C)c(=O)n(C)c4n(Cc4ccccc4)c3c2nc1C | 28 | 34.3 |  | > 100 | 38.2 | 31.2 | 32.8 | 38.1 | 38.4 | 32.2 |  |  |  |  |  |  |  |  | 
29 | NC(=O)c1ccc(NS(=O)(=O)c2ccc(N)cc2)nc1 | > 100 | > 100 | > 100 | > 100 | > 100 | > 100 | > 100 | > 100 | > 100 | > 100 |  |  |  |  |  |  |  |  | 
30 | CCCCC(C(=O)N/N=C/c1ccc([N+](=O)[O-])o1)C(=O)N/N=C/c1ccc([N+](=O)[O-])o1 | 14.7 | 6.47 | 4.22 | 14.6 | 12 | 14.4 | 14.6 | 12.3 | 7.73 | 50.9 |  |  |  |  |  |  |  |  | 
